Measurements published in patent publication US20250034167A1, “HETEROCYCLIC COMPOUNDS AND METHODS OF USE” (AMGEN INC., priority 2021, published 2025).

Target: His-tagged KRAS G12D protein (Homo sapiens, UniProt P01116, G12D)
Assay: biochemical
Method: The plate was incubated for 30 minutes at room temperature. Biotinylated KRPep-2d substrate (Amgen) was diluted to nM in Assay Buffer and 2 μL was added to all wells and incubated for 1 hour at room temperature. Detection Reagent (0.4 nM LANCE Eu-W1024 Anti-6×His (Perkin Elmer AD0401), 5 nM streptavidin-d2 (Cisbio 610SADLA)) was prepared in Assay Buffer, then 4 µL was added to the plate and incubated for 1 hour at room temperature.

His-tagged KRAS G12D protein, sequence (P01116 1-188 isoform P01116-2 G12D): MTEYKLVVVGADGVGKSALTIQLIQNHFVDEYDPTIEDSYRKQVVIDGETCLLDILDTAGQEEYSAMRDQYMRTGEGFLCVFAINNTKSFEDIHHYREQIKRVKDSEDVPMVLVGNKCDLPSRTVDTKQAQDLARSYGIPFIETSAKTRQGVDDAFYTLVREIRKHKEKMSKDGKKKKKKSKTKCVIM

Row | SMILES | IC50
1 | CCc1c(F)ccc2cc(O)cc(-c3ncc4c(N5C[C@H]6OCC[C@H]65)nc(OC[C@@]56CCCN5C[C@H](F)C6)nc4c3F)c12 (relative stereo) [Example 21, rel-4-(4-((1R,5R)-2-Oxa-6-azabicyclo[3.2.0]heptan-6-yl)-8-fluoro-2-(((2R,7aS)-2-fluorotetrahydro-1H-pyrrolizin-7a(5H)-yl)methoxy)pyrido[4,3-d]pyrimidin-7-yl)-5-ethyl-6-fluoronaphthalen-2-ol] | 32 nM
2 | CCc1c(F)ccc2cc(O)cc(-c3ncc4c(N5CC6CNC(=O)C6C5)nc(OC[C@@]56CCCN5C[C@H](F)C6)nc4c3F)c12 (relative stereo) [Example 61, rel-(3aR,6aS)-5-(7-(8-Ethyl-7-fluoro-3-hydroxynaphthalen-1-yl)-8-fluoro-2-(((2R,7aS)-2-fluorotetrahydro-1H-pyrrolizin-7a(5H)-yl)methoxy)pyrido[4,3-d]pyrimidin-4-yl)hexahydropyrrolo[3,4-c]pyrrol-1(2H)-one] | 5 nM
3 | CCc1c(F)ccc2cc(O)cc(-c3ncc4c(N5CCC6OCCC6C5)nc(OC[C@@]56CCCN5C[C@H](F)C6)nc4c3F)c12 (relative stereo) [Example 62, 5-Ethyl-6-fluoro-4-(8-fluoro-2-(((2R,7aS)-2-fluorotetrahydro-1H-pyrrolizin-7a(5H)-yl)methoxy)-4-rel-((3aR,7aS)-hexahydrofuro[3,2-c]pyridin-5(4H)-yl)pyrido[4,3-d]pyrimidin-7-yl)naphthalen-2-ol] | 40 nM
4 | CCc1c(F)ccc2cc(O)cc(-c3ncc4c(N5CCC[C@H]6NC(=O)C[C@H]65)nc(OC[C@@]56CCCN5C[C@H](F)C6)nc4c3F)c12 (relative stereo) [Example 63, rel-(3aR,7aR)-4-(7-(8-Ethyl-7-fluoro-3-hydroxynaphthalen-1-yl)-8-fluoro-2-(((2R,7aS)-2-fluorotetrahydro-1H-pyrrolizin-7a(5H)-yl)methoxy)pyrido[4,3-d]pyrimidin-4-yl)octahydro-2H-pyrrolo[3,2-b]pyridin-2-one] | 39 nM
5 | CCc1c(F)ccc2cc(O)cc(-c3ncc4c(N5C[C@@H](C(N)=O)CC[C@H]5C)nc(OC[C@@]56CCCN5C[C@H](F)C6)nc4c3F)c12 (relative stereo) [Example 64, rel-(3S,6R)-1-(7-(8-Ethyl-7-fluoro-3-hydroxynaphthalen-1-yl)-8-fluoro-2-(((2R,7aS)-2-fluorotetrahydro-1H-pyrrolizin-7a(5H)-yl)methoxy)pyrido[4,3-d]pyrimidin-4-yl)-6-methylpiperidine-3-carboxamide] | 6 nM
6 | CCc1c(F)ccc2cc(O)cc(-c3ncc4c(N5CC[C@H]6CNC(=O)[C@H]6C5)nc(OC[C@@]56CCCN5C[C@H](F)C6)nc4c3F)c12 (relative stereo) [Example 103, rel-(3aR,7aR)-5-(7-(8-Ethyl-7-fluoro-3-hydroxynaphthalen-1-yl)-8-fluoro-2-(((2R,7aS)-2-fluorotetrahydro-1H-pyrrolizin-7a(5H)-yl)methoxy)pyrido[4,3-d]pyrimidin-4-yl)octahydro-3H-pyrrolo[3,4-c]pyridin-3-one] | 4 nM
7 | CCc1c(F)ccc2cc(O)cc(-c3ncc4c(N5CC6CCC(C(N)=O)(C6)C5)nc(OC[C@@]56CCCN5C[C@H](F)C6)nc4c3F)c12 (relative stereo) [Example 121, 3-(7-(8-Ethyl-7-fluoro-3-hydroxynaphthalen-1-yl)-8-fluoro-2-(((2R,7aS)-2-fluorotetrahydro-1H-pyrrolizin-7a(5H)-yl)methoxy)pyrido[4,3-d]pyrimidin-4-yl)-3-azabicyclo[3.2.1]octane-1-carboxamide] | 6 nM
8 | CCc1c(F)ccc2cc(O)cc(-c3ncc4c(N5C6CCC(C(N)=O)C5CC6)nc(OC[C@@]56CCCN5C[C@H](F)C6)nc4c3F)c12 (relative stereo) [Example 123, rac-(15,5S)-8-(7-(8-Ethyl-7-fluoro-3-hydroxynaphthalen-1-yl)-8-fluoro-2-(((2R,7aS)-2-fluorotetrahydro-1H-pyrrolizin-7a(5H)-yl)methoxy)pyrido[4,3-d]pyrimidin-4-yl)-8-azabicyclo[3.2.1]octane-2-carboxamide] | 47 nM
9 | CCc1c(F)ccc2cc(O)cc(-c3ncc4c(N5CC6CC(O)C(C6)C5)nc(OC[C@@]56CCCN5C[C@H](F)C6)nc4c3F)c12 (single isomer, unassigned) [Example 25] | 11 nM
10 | CCc1c(F)ccc2cc(O)cc(-c3ncc4c(N5CC6CC(O)C(C6)C5)nc(OC[C@@]56CCCN5C[C@H](F)C6)nc4c3F)c12 (single isomer, unassigned) [Example 26] | 4 nM
11 | CCC1CCCc2cc(O)cc(-c3ncc4c(N5CCC[C@@](C)(O)C5)nc(OC[C@@]56CCCN5C[C@H](F)C6)nc4c3F)c21 (single isomer, unassigned) [Example 174] | 335 nM
12 | CCc1c(F)ccc2cc(O)cc(-c3ncc4c(N5CC6CC5CCC6O)nc(OCC56CCCN5C[C@H](F)C6)nc4c3F)c12 (stereo in doubt) [Example 155, 6-(7-(8-Ethyl-7-fluoro-3-hydroxy-naphthalen-1-yl)-8-fluoro-2-(((2R,7aS)-2-fluorotetrahydro-1H-pyrrolizin-7a(5H)-yl)methoxy)pyrido[4,3-d]pyrimidin-4-yl)-6-azabicyclo[3.2.1] octan-2-ol] | 33 nM
13 | CCc1c(F)ccc2cc(O)cc(-c3ncc4c(N5CCC5C(N)=O)nc(OC[C@@]56CCCN5C[C@H](F)C6)nc4c3F)c12 (stereo partly drawn) [Example 5, 1-(7-(8-Ethyl-7-fluoro-3-hydroxynaphthalen-1-yl)-8-fluoro-2-(((2R,7aS)-2-fluorotetrahydro-1H-pyrrolizin-7a(5H)-yl)methoxy)pyrido[4,3-d]pyrimidin-4-yl)azetidine-2-carboxamide] | 19 nM
14 | CCc1c(F)ccc2cc(O)cc(-c3ncc4c(N5C[C@@H]6COC[C@@H]65)nc(OC[C@@]56CCCN5C[C@H](F)C6)nc4c3F)c12 [Example 20, 4-(4-((1S,5R)-3-Oxa-6-azabicyclo[3.2.0]heptan-6-yl)-8-fluoro-2-(((2R,7aS)-2-fluorotetrahydro-1H-pyrrolizin-7a(5H)-yl)methoxy)pyrido[4,3-d]pyrimidin-7-yl)-5-ethyl-6-fluoronaphthalen-2-ol] | 39 nM
15 | CCc1c(F)ccc2cc(O)cc(-c3ncc4c(N5CC(O)CC(C)(C)C5)nc(OC[C@@]56CCCN5C[C@H](F)C6)nc4c3F)c12 (some centres unmarked) [Example 32] | 9 nM
16 | CCc1c(F)ccc2cc(O)cc(-c3ncc4c(N5C6CCC(O)C5CC6)nc(OC[C@@]56CCCN5C[C@H](F)C6)nc4c3F)c12 (stereo partly drawn) [Example 34, 8-(7-(8-Ethyl-7-fluoro-3-hydroxynaphthalen-1-yl)-8-fluoro-2-(((2R,7aS)-2-fluorotetrahydro-1H-pyrrolizin-7a(5H)-yl)methoxy)pyrido[4,3-d]pyrimidin-4-yl)-8-azabicyclo[3.2.1]octan-2-ol 2,2,2-trifluoroacetate] | 54 nM
17 | CCc1c(F)ccc2cc(O)cc(-c3ncc4c(N5CC[C@H](C)[C@@H](O)C5)nc(OC[C@@]56CCCN5C[C@H](F)C6)nc4c3F)c12 [Example 35, (3R,4S)-1-(7-(8-Ethyl-7-fluoro-3-hydroxynaphthalen-1-yl)-8-fluoro-2-(((2R,7aS)-2-fluorotetrahydro-1H-pyrrolizin-7a(5H)-yl)methoxy)pyrido[4,3-d]pyrimidin-4-yl)-4-methyl-piperidin-3-ol] | 25 nM
18 | CCc1c(F)ccc2cc(O)cc(-c3ncc4c(N5CC6CCOC6C5)nc(OC[C@@]56CCCN5C[C@H](F)C6)nc4c3F)c12 (stereo partly drawn) [Example 37, 5-Ethyl-6-fluoro-4-(8-fluoro-2-(((2R,7aS)-2-fluorotetrahydro-1H-pyrrolizin-7a(5H)-yl)methoxy)-4-(hexahydro-5H-furo[2,3-c]pyrrol-5-yl)pyrido[4,3-d]pyrimidin-7-yl)naphthalen-2-ol] | 42 nM
19 | CCc1c(F)ccc2cc(O)cc(-c3ncc4c(N5CC(C(N)=O)CC(C)(C)C5)nc(OC[C@@]56CCCN5C[C@H](F)C6)nc4c3F)c12 (stereo partly drawn) [Example 43, 1-(7-(8-Ethyl-7-fluoro-3-hydroxynaphthalen-1-yl)-8-fluoro-2-(((2R,7aS)-2-fluorotetrahydro-1H-pyrrolizin-7a(5H)-yl)methoxy)pyrido[4,3-d]pyrimidin-4-yl)-5,5-dimethylpiperidine-3-carboxamide] | 4 nM
20 | C#Cc1c(F)ccc2cccc(-c3ncc4c(N5CCC[C@@](C)(O)C5)nc(OC[C@@]56CCCN5C[C@H](F)C6)nc4c3F)c12 [Example 50, (R)-1-(7-(8-Ethynyl-7-fluoronaphthalen-1-yl)-8-fluoro-2-(((2R,7aS)-2-fluorotetrahydro-1H-pyrrolizin-7a(5H)-yl)methoxy)pyrido[4,3-d]pyrimidin-4-yl)-3-methylpiperidin-3-ol] | 8 nM
21 | CCc1c(F)ccc2cc(O)cc(-c3ncc4c(N5CC6CC(O)C5C6)nc(OC[C@@]56CCCN5C[C@H](F)C6)nc4c3F)c12 (stereo partly drawn) [Example 51, 2-(7-(8-Ethyl-7-fluoro-3-hydroxynaphthalen-1-yl)-8-fluoro-2-(((2R,7aS)-2-fluorotetrahydro-1H-pyrrolizin-7a(5H)-yl)methoxy)pyrido[4,3-d]pyrimidin-4-yl)-2-azabicyclo[2.2.1]heptan-6-ol] | 25 nM
22 | CCc1cccc2cc(O)cc(-c3ncc4c(N5C6CCC5C(C)(O)CC6)nc(OC[C@@]56CCCN5C[C@H](F)C6)nc4c3F)c12 (stereo partly drawn) [Example 69, 8-(7-(8-Ethyl-3-hydroxynaphthalen-1-yl)-8-fluoro-2-(((2R,7aS)-2-fluorotetrahydro-1H-pyrrolizin-7a(5H)-yl)methoxy)pyrido[4,3-d]pyrimidin-4-yl)-2-methyl-8-azabicyclo[3.2.1]octan-2-ol] | 36 nM
23 | CCc1c(F)ccc2cc(O)cc(-c3ncc4c(N5C6CCC5C(C)(O)CC6)nc(OC[C@@]56CCCN5C[C@H](F)C6)nc4c3F)c12 (stereo partly drawn) [Example 70, 8-(7-(8-Ethyl-7-fluoro-3-hydroxynaphthalen-1-yl)-8-fluoro-2-(((2R,7aS)-2-fluorotetrahydro-1H-pyrrolizin-7a(5H)-yl)methoxy)pyrido[4,3-d]pyrimidin-4-yl)-2-methyl-8-azabicyclo[3.2.1]octan-2-ol] | 32 nM
